Experimental data taken from article PMC5148686 (European journal of medicinal chemistry, 2016).
“Also recorded” adds a separate entry of the source.

Assays:
[1] = molecular target: human dopamine D2 receptor (Homo sapiens, UniProt P14416); experiment: PDSP radioligand binding assay at dopamine D2 receptor; settings: primary assay at 10 μM; not progressed to secondary assay
[2] = molecular target: T1, dopamine D3 receptor (Homo sapiens, UniProt P35462); experiment: [35S]GTPγS binding in CHO-hD3 cells; assay type: cell-based; settings: compared with dopamine as full agonist
[3] = molecular target: dopamine D1 receptor (Macaca mulatta, UniProt O77680); experiment: [35S]GTPγS binding stimulation in HEK293-rh D1 cells; assay type: cell-based, rhesus macaque; settings: compared with dopamine as full agonist
[4] = molecular target: T1, dopamine D3 receptor; experiment: PDSP radioligand binding assay at dopamine D3 receptor; settings: versus 22c

Chain of human dopamine D2 receptor (P14416 whole entry): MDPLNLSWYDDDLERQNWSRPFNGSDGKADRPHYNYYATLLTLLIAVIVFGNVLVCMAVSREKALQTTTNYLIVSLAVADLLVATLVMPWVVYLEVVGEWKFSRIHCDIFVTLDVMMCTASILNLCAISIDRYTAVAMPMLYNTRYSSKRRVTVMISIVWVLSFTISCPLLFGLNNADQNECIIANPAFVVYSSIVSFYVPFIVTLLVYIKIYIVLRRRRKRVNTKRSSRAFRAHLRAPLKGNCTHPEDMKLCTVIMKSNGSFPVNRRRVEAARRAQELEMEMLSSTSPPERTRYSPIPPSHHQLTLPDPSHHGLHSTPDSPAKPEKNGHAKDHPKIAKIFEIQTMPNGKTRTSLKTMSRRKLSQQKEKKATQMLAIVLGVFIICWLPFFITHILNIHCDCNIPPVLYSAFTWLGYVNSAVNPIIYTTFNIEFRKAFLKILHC
T1 sequence (P35462 whole entry): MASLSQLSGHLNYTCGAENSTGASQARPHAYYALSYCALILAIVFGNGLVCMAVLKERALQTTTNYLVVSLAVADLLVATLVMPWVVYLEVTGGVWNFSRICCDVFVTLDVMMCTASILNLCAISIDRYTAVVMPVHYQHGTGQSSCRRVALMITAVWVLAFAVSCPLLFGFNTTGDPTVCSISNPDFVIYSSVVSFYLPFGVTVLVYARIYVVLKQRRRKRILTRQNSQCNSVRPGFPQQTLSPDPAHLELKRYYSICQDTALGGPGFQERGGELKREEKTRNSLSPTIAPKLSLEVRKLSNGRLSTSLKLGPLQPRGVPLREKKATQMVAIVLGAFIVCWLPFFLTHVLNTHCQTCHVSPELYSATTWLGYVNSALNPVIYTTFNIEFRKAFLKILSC
Chain of dopamine D1 receptor (O77680 whole entry): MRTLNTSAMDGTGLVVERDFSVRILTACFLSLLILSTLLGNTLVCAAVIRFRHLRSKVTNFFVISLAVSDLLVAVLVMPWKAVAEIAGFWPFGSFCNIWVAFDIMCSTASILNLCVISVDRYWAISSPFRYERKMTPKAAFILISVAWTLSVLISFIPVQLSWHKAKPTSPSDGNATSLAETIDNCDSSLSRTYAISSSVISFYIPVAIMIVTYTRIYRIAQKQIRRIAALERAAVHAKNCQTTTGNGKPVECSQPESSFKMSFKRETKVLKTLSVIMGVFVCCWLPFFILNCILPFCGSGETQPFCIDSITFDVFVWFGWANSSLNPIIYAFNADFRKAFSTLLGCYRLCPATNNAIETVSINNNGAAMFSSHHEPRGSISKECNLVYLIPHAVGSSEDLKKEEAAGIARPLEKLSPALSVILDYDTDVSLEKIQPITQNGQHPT

| SMILES | D2 receptor affinity in the primary assay [1] | also measured |
| --- | --- | --- |
| CCOc1c(O)cc(Br)c2c1CN1CCc3cc(OC)c(O)cc3[C@@H]1C2 [Compound 20a, (S)-12-bromo-9-ethoxy-3-methoxy-5,8,13,13a-tetrahydro-6H-isoquinolino[3,2-a]isoquinoline-2,10-diol] | did not show any appreciable D2 receptor affinity | – |
| COCCOc1c(O)cc(Br)c2c1CN1CCc3cc(OC)c(O)cc3[C@@H]1C2 [Compound 20g, (S)-12-bromo-3-methoxy-9-(2-methoxyethoxy)-5,8,13,13a-tetrahydro-6H-isoquinolino[3,2-a]isoquinoline-2,10-diol] | did not show any appreciable D2 receptor affinity; also recorded: no activity | – |
| CCOc1c(O)ccc2c1CN1CCc3cc(OC)c(O)cc3[C@@H]1C2 [Compound 22a, (S)-9-ethoxy-3-methoxy-5,8,13,13a-tetrahydro-6H-isoquinolino[3,2-a]isoquinoline-2,10-diol] | lacked any appreciable affinity | intrinsic activity at D3 receptor (stimulation of GTPγ-S binding) [2]: lacked intrinsic activity; intrinsic activity at D1 receptor (stimulation of GTPγ-S binding) [3]: lacked intrinsic activity |
| CCCCOc1c(O)ccc2c1CN1CCc3cc(OC)c(O)cc3[C@@H]1C2 [Compound 22c, (S)-9-butoxy-3-methoxy-5,8,13,13a-tetrahydro-6H-isoquinolino[3,2-a]isoquinoline-2,10-diol] | lacked any appreciable affinity | – |
| CCCCCCOc1c(O)ccc2c1CN1CCc3cc(OC)c(O)cc3[C@@H]1C2 [Compound 22e, (S)-9-(hexyloxy)-3-methoxy-5,8,13,13a-tetrahydro-6H-isoquinolino[3,2-a]isoquinoline-2,10-diol] | lacked any appreciable affinity | – |
| COCCOc1c(O)ccc2c1CN1CCc3cc(OC)c(O)cc3[C@@H]1C2 [Compound 22g, (S)-3-methoxy-9-(2-methoxyethoxy)-5,8,13,13a-tetrahydro-6H-isoquinolino[3,2-a]isoquinoline-2,10-diol] | – | fold higher D3 affinity than n-butyloxy analogue 22c [4]: 4 fold |
